What follows are compounds tested on nerve cells (considered to be cortical excitatory neurons) produced by forcibly expressing the Ngn2 genes from the iPS cells (assay: Evaluation of compound for oxidative stress-induced neuronal damage (neurite length, IncuCyte S3 Neurotrack)). Details: same method as in Test Example 7, −AO culture medium (Stress(+)), FIG. 19.
Format: cell-based, human
Protocol: (§1) A solution obtained by diluting iMatrix-511 silk (Matrixome, 892021) 16.7 times with PBS was added to a 96-well plate (Corning, 356461) coated with PDL at 70 μL/well, and incubated at 37° C. for 3 hours to 72 hours.
(§2) As a culture medium containing an antioxidant, a culture medium (Stress(−)) in which DMSO was added to a +AO culture medium to a final concentration of 0.1% by volume (v/v) was used, as a culture medium not containing an antioxidant, a culture medium (Stress(+)) in which DMSO was added to a −AO culture medium to a final concentration of 0.1% by volume (v/v), and as the culture medium of the drug evaluation group, a culture medium in which a DMSO-dissolved compound was added to the −AO culture medium to a concentration of 0.1% by volume (v/v) (0.004 to 20 μM) was used.
The nerve cells (considered to be cortical excitatory neurons) produced by forcibly expressing the Ngn2 genes from the iPS cells was thawed in a warm bath at 37° C. […] After centrifugation, the supernatant was removed, the cells were suspended in 1 mL of the culture medium, and the number of cells was counted. […]
(§3) The neurite length was quantified using the Neurotrack software (Sartorius, 9600-0010) of IncuCyte S3.
The effect of edaravone, which was used as a therapeutic drug for ALS, on oxidative stress-induced neuronal damage was evaluated by the same method as in Test Example 7. […]

SMILES | reduction in the sum of the neurite lengths
CC1=NN(c2ccccc2)C(=O)C1 [edaravone] | suppressed in a concentration-dependent manner

What follows are compounds tested on iCell motor neurons (assay: Compound screening using oxidative stress-induced neuronal damage evaluation system (AUC of neurite length over 14 days)). Details: iCell motor neurons in −AO culture medium (Stress(+)), 4.7×10^4 cells/cm^2, StemSelect Library compounds, FIG. 18.
Format: cell-based, human
Protocol: as §1
as §2, with “As the compound library, StemSelect Library compounds (Merck, 569774) were used. As” for “As”, “(v/v)” for “(v/v) (0.004 to 20 μM)”
(§4) Frozen cells (iCell motor neurons, FCDI, C1048) were thawed in a warm bath at 37° C. After melting, the cells were added to a culture medium and centrifuged at 600×g at room temperature for 5 minutes. After centrifugation, the supernatant was removed, the cells were suspended in 1 mL of the culture medium, and the number of cells was counted. Thereafter, the cells were diluted with a culture medium, seeded at 200 μL/well (4.7×10^4 cells/cm^2), and cultured under the conditions of 37° C. and 5% CO2. After culturing, images were acquired by imaging with IncuCyte S3 (Sartorius, Incucyte S3) every 6 hours.
The neurite length was quantified using the Neurotrack software (Sartorius, 9600-0010) of IncuCyte S3. The area under the curve (AUC) of the curve of the neurite length over time for 14 days was calculated, and the effects of the drug were compared. […] The AUC of the nerve cells (Stress(+) group) (▴) cultured in the culture medium not containing an antioxidant was reduced as compared with the nerve cells (Stress(−) group) (▪) cultured in the culture medium containing an antioxidant.

SMILES | reduction in AUC of the curve of the neurite length over time for 14 days
c1ccc2c(Oc3nc(Nc4ccc(N5CCOCC5)cc4)c4ncn(C5CCCCC5)c4n3)cccc2c1 [Purmorphamine] | strongly suppressed
CC[C@H](C)C(=O)O[C@H]1CCC=C2C=C[C@H](C)[C@H](CC[C@@H]3C[C@@H](O)CC(=O)O3)[C@H]21 [Mevastatin] | strongly suppressed
O=C(Nc1cccc(NC(=O)c2cccc(O)c2O)c1)c1cccc(O)c1O [Telomerase Inhibitor IX] | strongly suppressed
CC#C[C@]1(O)CC[C@H]2[C@@H]3CCC4=CC(=O)CCC4=C3[C@@H](c3ccc(N(C)C)cc3)C[C@@]21C [Mifepristone] | strongly suppressed
c1nc2nc(Nc3ccc(N4CCOCC4)cc3)nc(NC3CCCCC3)c2[nH]1 [Reversine] | strongly suppressed
C[C@H](NC(=O)Cc1cc(F)cc(F)c1)C(=O)N[C@H]1N=C(c2ccccc2)c2ccccc2N(C)C1=O [γ-Secretase Inhibitor XXI] | strongly suppressed
CCCC(=O)OCc1ccc(OC(=O)/C=C(C)/C=C/C=C(C)/C=C/C2=C(C)CCCC2(C)C)cc1 [ATRA-BA Hybrid] | strongly suppressed
O=C(O)c1ccc2cc(-c3ccc(O)c(C45CC6CC(CC(C6)C4)C5)c3)ccc2c1 [CD437/AHPN] | strongly suppressed
Clc1ccccc1CNCC1CCC(CNCc2ccccc2Cl)CC1 (stereo not shown) [AY 9944] | strongly suppressed
C=CC(C)(C)c1cc(/C=C/C(=O)c2ccc(O)cc2)c(OC)cc1O [Licochalcone-A] | strongly suppressed
N=C(N)SCCc1ccc(OCc2ccc([N+](=O)[O-])cc2)cc1 [KB-R7943] | strongly suppressed

What follows are compounds tested on iCell motor neurons (assay: Evaluation of necroptosis inhibitor for oxidative stress-induced neuronal damage (neurite length, IncuCyte S3 Neurotrack)). Details: iCell motor neurons in −AO culture medium (Stress(+)), 4.7×10^4 cells/cm^2, compound 0.01 to 20 μM, FIG. 14.
Format: cell-based, human
Protocol: as §1
as §2, with “(0.01” for “(0.004”
as §4, with “After culturing, images were acquired by imaging with IncuCyte S3 (Sartorius, Incucyte S3) every 6 hours.” left out
as §3

SMILES | reduction in the sum of the neurite lengths
CN1C(=O)C(Cc2c[nH]c3ccccc23)NC1=S (stereo not shown) [Necrostatin-1] | suppressed in a concentration-dependent manner
